Laboratory results taken from ChEMBL document CHEMBL1127262, “Novel HIV01 protease inhibitors containing A -hydroxy sulfide isostere” (Bioorg Med Chem Lett, 1994).
Values after ≈ are worked out from the molar mass of the structure shown.

Legend:
[1] = biological target: Human immunodeficiency virus type 1 protease (Human immunodeficiency virus 1) (UniProt Q72874); assay: Percent inhibition against isolated HIV-1 protease at a concentration of 1 ug/ml
CCRF-CEM = assay: Compound was tested for whole cell antiviral activity against CEM cell lines; format: functional, cell-based; details: Homo sapiens
MT2 = assay: Compound was tested for whole cell antiviral activity against MT2 cell lines; format: functional, cell-based; details: Homo sapiens
[2] = biological target: Human immunodeficiency virus type 1 protease (Human immunodeficiency virus 1, UniProt Q72874); assay: Compound was tested for inhibitory activity against isolated HIV-1 protease

Work on `CC(C)(C)NC(=O)c1ccccc1[S+]([O-])C[C@@H](O)[C@H](Cc1ccccc1)NC(=O)[C@H](CC(N)=O)NC(=O)c1ccc2ccccc2n1` (stereo in doubt; 16a) yielded an inhibition [1] of 69%.
For `CC(C)(C)NC(=O)c1ccccc1C[C@@H](O)[C@H](Cc1ccccc1)NC(=O)[C@H](CC(N)=O)NC(=O)c1ccc2ccccc2n1`, the IC50 (CCRF-CEM) was 0.0137 µg/mL (≈ 0.0224 µM) and the IC50 (MT2) was 0.0317 µg/mL (≈ 0.052 µM).
In the case of `CC(C)(C)NC(=O)c1ccccc1SC[C@@H](O)[C@H](Cc1ccccc1)NC(=O)[C@H](CC(N)=O)NC(=O)c1ccc2ccccc2n1`, the IC50 (CCRF-CEM) is reported as 0.48 µg/mL (≈ 0.748 µM), the IC50 [2] is reported as 13.4 nM and the IC50 (MT2) is reported as 0.41 µg/mL (≈ 0.639 µM).
`CC(C)(C)NC(=O)c1ccccc1SC[C@@H](O)[C@H](Cc1ccccc1)NC(=O)[C@H](Cc1c[nH]cn1)NC(=O)c1ccc2ccccc2n1` gave an IC50 [2] of 208 nM.
`CC(C)(C)NC(=O)c1ccccc1S(=O)(=O)C[C@@H](O)[C@H](Cc1ccccc1)NC(=O)[C@H](CC(N)=O)NC(=O)c1ccc2ccccc2n1` was tested, and the IC50 [2] was 509 nM.
In the case of `CC(C)(C)NC(=O)c1ccccc1SC[C@H](O)[C@H](Cc1ccccc1)NC(=O)[C@H](CC(N)=O)NC(=O)c1ccc2ccccc2n1`, the IC50 (CCRF-CEM) is reported as 4.99 µg/mL (≈ 7.78 µM), the IC50 [2] is reported as 56.1 nM and the IC50 (MT2) is reported as 4.38 µg/mL (≈ 6.82 µM).
With `CC(C)(C)NC(=O)c1ccccc1[S+]([O-])C[C@@H](O)[C@H](Cc1ccccc1)NC(=O)[C@H](CC(N)=O)NC(=O)c1ccc2ccccc2n1` (stereo in doubt; 16b) the inhibition [1] was 28%.
